pIC50: −log10 of the molar value. “And” between values parts separate entries of the source, which are not always exact repeats. Equal entries are not always repeated. Where no end group is shown, it is not given here. [ ]: non-standard residue; d: D form. Pen = CC(C)(S)[C@H](N)C(=O)O
Experiments:
[1] = tested on: platelets stimulated with thrombin; assay: Thrombin-stimulated platelet aggregation (Born aggregometry); format: cell-based, human; details: thrombin 2 U/ml, gel-filtered platelets, 37° C.
Experimental: Platelet aggregation was assessed using the method of Born, Nature 194: 927-929 (1962), incorporated herein by reference. Briefly, the change in light transmission was measured through a stirred suspension of platelets in an aggregometer (Model 400 VS, Chrono-Log, Havertown, Pa., USA). […] In studies using thrombin, the PRP was gel-filtered on Sepharose 2B in divalent ion-free Tyrode's solution containing 2% BSA. For all studies, the reference standard was platelet-poor plasma, which was obtained by centrifuging PRP at 1000× g for 5 min.
All aggregation studies were performed at 37° C. with a constantly stirred suspension of 3×10^8 platelets/ml. (Platelet count was determined with the aid of a hemacytometer.) Peptides and stimulants were added to these suspensions in 1% dilutions. The PRP and gel-filtered platelets were used within three hours from the time of blood collection.
Peptide anti-aggregation potencies were determined from dose-responsive curves for the inhibition of the maximum aggregation responses stimulated by physiologic doses of ADP (10 μm) and thrombin (2 U/ml).

[2] = tested on: platelets stimulated with ADP; assay: ADP-stimulated platelet aggregation (Born aggregometry, PRP); format: cell-based, human; details: ADP 10 μm, platelet-rich plasma, 37° C.
Experimental: Platelet aggregation was assessed using the method of Born, Nature 194: 927-929 (1962), incorporated herein by reference. Briefly, the change in light transmission was measured through a stirred suspension of platelets in an aggregometer (Model 400 VS, Chrono-Log, Havertown, Pa., USA). Studies employing ADP were performed with platelet-rich plasma (PRP), which was obtained by low-speed centrifugation (200× g for 10 min.) of whole blood freshly drawn into trisodium citrate (at a final concentration of 11 mM). […] For all studies, the reference standard was platelet-poor plasma, which was obtained by centrifuging PRP at 1000× g for 5 min.

[3] = tested on: Gore-tex vascular graft thrombosis; assay: Platelet and fibrinogen uptake by Gore-tex grafts in baboon ex vivo shunt
Experimental: Adult male baboons (weighing 16 to 25 kg) were used in these studies. These were sedated with ketamine hydrochloride (200 to 250 mg intramuscular injection) and maintained under anesthesia with sodium pentobarbital (50 to 75 mg administered intravenously as necessary).
Twenty-four hours before the ex vivo shunt was established, platelets were isolated from 500 ml of blood from the test animal and labelled with ca. 500 microcuries of indium-111 oxine (Medi+Physics, Emeryville, Calif.), which irreversibly and specifically binds to platelets with an efficiency of 50%. Immediately after labelling, these platelets were then injected back into the animal and allowed to circulate for 24 hours. Immediately before the start of the study, fibrinogen that had been isolated from the animal and labelled with iodine-131 (DuPont Nuclear, Boston, Mass.) was also injected back into the animal. Also at this time, baseline determinations of the clotting and template bleeding times were made, and blood samples were drawn for hematology studies.
To establish the ex vivo shunt, the femoral artery and vein were percutaneously cannulated with introducer catheters (KMA Inc., Mansfield, Mass.). The catheters were then connected to medical-grade, heparin-coatedsilastic tubing (2.59 mm internal diameter, (Extracorporeal Medical Specialties, Inc., King of Prussia, Pa.). […] Finally, a 5 cm-long test segment of a 4 mm (internal diameter) vascular graft was inserted at the apex of the circuit. The graft used in these studies was Gore-tex (expanded polytetrafluoroethylene, (W. L. Gore and Associates, Inc., Flagstaff, Ariz.). An electromagnetic flow probe was then inserted into the tubing circuit to measure blood flow, which was maintained at 100 ml/min. by varying the resistance imported by a partially occluding screw clamp that was distal to the probe. Finally, a 5 cm-long test segment of a 4 mm (internal diameter) vascular graft was inserted at the apex of the circuit. The graft used in these studies was Gore-tex (expanded polytetrafluoroethylene, W. L. Gore and Associates, Inc., Flagstaff, Ariz.).
Platelet deposition onto the grafts was monitored by dynamic scanning with a gamma camera (Sigma 400, Ohio Nuclear, Inc., Sohon, Ohio), which detects the gamma radiation emitted by the indium^111 -labelled platelets. Once the circuit was in place, the animal was placed under this camera, and blood flow was initiated. Scans were then taken at the rate of one frame per two minutes for two hours. The data from these scans were collected on a dedicated Digital MDA computer (Maynard, Mass.). […]

coronary thrombosis = assay: Electrically induced canine coronary thrombosis, time to full occlusion; format: in vivo, dog
Experimental: Male mongrel dogs weighing 14 to 20 kg were selected based on proper aggregation of their platelets in response to arachidonic acid, collagen, and adenosine disphosphate (ADP) and based on similar weights and hemodynamic properties.
Before surgery, the animals were anesthetized with sodium pentobarbital (30 mg/kg, i.v.) and then intubated and ventilated on room air with positive pressure using a respirator (Harvard Apparatus, S. Natick, Mass.) at a volume of 30 ml/kg and a frequency of 12 breaths/min. Surgery, performed under aseptic conditions, was begun with the placement of cannulae into the left carotid artery and jugular vein for monitoring arterial blood pressure (Statham P23 pressure transducer, Gould, Inc., Cardiovascular Products, Oxnard, Calif.) and administering intravenous fluids.
The heart was exposed via a left thoracotomy through the 5th intercostal space. A 2-cm segment of the left circumflex coronary artery (LCCA) was isolated from surrounding tissue by blunt dissection. […] The intra-coronary electrode was constructed by attaching a 25-gauge hypodermic needle tip to a 30-gauge Teflon-insulated silver-coated copper wire. The mechanical occluder was constructed of stainless steel in a C shape with a Teflon screw (2 mm diameter) on top. It was adjusted to control vessel circumference and decrease the reactive hyperemic flow due to a 10-sec (full) occlusion by 50-70% without affecting basal coronary blood flow (FIG. 1c). A monopolar epicardial electrode was sutured to the surface of the ventricle in the region of LCCA distribution to monitor ischemic changes in the electrocardiogram (ECG). The left atrium was cannulated with polythylene tubing for administration of the peptide. Continuous recordings of blood pressure, limb lead II ECG, epicardial electrogram, and mean and phasic LCCA blood flow were obtained on a Model 7 polygraph (Grass Instrument Co., Quincy, Mass.).
One hour after the completion of surgery, a 100 micro-amp continuous anodal direct current delivered from a 9 volt nickel-cadmium battery was applied to the intimal surface of the LCCA. The anode of the battery was in series with a 250,000 ohm potentiometer and the intraluminal coronary artery electrode. The electric circuit was completed by placing the cathode in a subcutaneous site. Electrical stimulation was applied for three hours. At the conclusion of each experiment, the heart was fibrillated electrically and quickly removed, and the LCCA was dissected free as far as possible to verify the position of the implanted anodal electrode.
(§1) Animals were randomly assigned to two treatment groups: vehicle control (i.e., normal saline) or RGD peptides at various concentrations. Peptides were administered intra-atrially in both bolus and continuous injections. […] A continuous infusion of the same peptide was then started immediately after completion of this initial injection. Animals that received a 5 mg/kg bolus also received a 5 mg/kg/hr infusion, whereas animals that received a 10 mg/kg bolus also received a 10 mg/kg/hr infusion. The anti-thrombotic effects of the peptides were monitored until 30 minutes after the occurrence of a persistent, occlusive thrombus or five hours after the initiation of electrical stimulation (whichever resulted first). If an occlusive thrombus had not developed within four hours after the initiation of current, the peptide infusion was stopped.
Coronary thrombosis was quantified as the time to full occlusion. The effects of the various peptide treatments on coronary thrombosis is illustrated in FIG. 4.

[4] = tested on: canine platelet aggregation; assay: In vitro canine platelet aggregation stimulated by ADP, arachidonic acid or collagen; format: cell-based, dog; details: 10 μm ADP, […] arachidonic acid or 9.6 micrograms/ml collagen; PRP; read-out: IC50 against canine platelet aggregation
Experimental: (§2) Platelet counts and ex vivo aggregation studies were performed one hour before and 1, 3, and 5 hours after application of anodal direct current.
Epinephrine (550 nM) was used to prime platelets before stimulation with arachidonic acid. Peptides were added in 1% dilutions to the PRP solutions.

platelet aggregation [5] = assay: Ex vivo platelet aggregation after peptide injection in canine coronary thrombosis model; design: species or system dog; details: for ex vivo aggregation reduced relative to control: 3 mg/kg
Experimental: For all ex vivo studies (see FIGS. 3a, 3b1, 3b2, 3b3, 3c1 and 3c2), control aggregation values were standardized to the percentages of light transmission observed in PRP and PPP samples (0% and 100%, respectively).
as §1, §2
Platelet aggregation was also determined ex vivo at one, three, and five hours after current application. For these studies, arachidonic acid, or collagen was again used to stimulate the platelets.
The average aggregation values determined in these studies for all of the peptide treatments are depicted in FIGS. 3a, 3b1, 3b2, 3b3, 3c1, and 3c2. […] The control responses in these studies were 70-80% of maximum. […] Here the control responses were 55-80% of maximum.

platelet aggregation [6] = assay: Ex vivo ADP-stimulated platelet aggregation in baboon PRP; details: animal 2; ADP 10 μm; 0, 1 and 2 hours
Experimental: At one- and two-hour time points, template bleeding times were measured, and blood samples were drawn to assess the hematology aggregation studies. Platelet aggregation studies were performed as described in Example V using ADP as the stimulus.
In addition, platelet aggregation studies were conducted on PRP derived from the second animal. Whole blood was drawn at three time points (0, 1 and 2 hours) of both control and experimental shunts.

[7] = animal 1, two bolus IV injections of 10 mg/kg
[8] = animal 2, 10 mg/kg IV bolus + 10 mg/kg/hr infusion for two hours
[9] = 10 mg/kg bolus + 10 mg/kg/hr infusion, intra-atrial
[10] = 10 mg/kg, all three time points

Substance | pIC50 [1] | pIC50 [2] | also measured
R2 PenGRGDTPCA | 5.57 | 5.09 | 
FRGDSPDG |  | 3.96 | 
G[Pen]YRGDSPCA (cysteine pairing not given here) |  | 4.33 | 
LPenGHRGDLRCA |  | 4.98 | 
GPenGHRGDTRCA | 4.77 | 4.95 | 
R[Pen]GRGDSRCA (cysteine pairing not given here) | 4.92 | 4.92 | 
R(orn)GHRGDLRDR |  | < 3.70 | 
R[Pen]GRGDLRCA (cysteine pairing not given here) | 4.89 | 4.80 | 
(t-but-am-Pmp)GHRGDLRPenA |  | 4.05 | 
RPenGRGDTPCK |  | 5.12 | 
GPenGHRGDLRCA |  |  | reduction in I131-fibrinogen uptake by graft [3, 7]: 79%; reduction in In111-platelet uptake by graft [3, 7]: 90%; reduction in labelled fibrinogen uptake by graft [3, 8]: 78%; reduction in labelled platelet uptake by graft [3, 8]: 84%; time to full occlusion (coronary thrombosis; [9]): did not significantly influence; pIC50 [4]: 4.52 to 4.82; ex vivo inhibition of AA-stimulated aggregation relative to control (platelet aggregation [5]; [10]): 43-70%; ex vivo inhibition of collagen-stimulated aggregation relative to control (platelet aggregation [5]; [10]): 12-50%; ex vivo inhibition of ADP-stimulated aggregation (platelet aggregation [5]; 10 mg/kg, one, three, five hours): substantially inhibited; ex vivo platelet response to ADP (platelet aggregation [6]): completely unresponsive
RPenGRGDWPCR | 6.28 |  | time to full occlusion (coronary thrombosis; 3 mg/kg): ineffective; time to full occlusion (coronary thrombosis; [9]): prevented occlusion; pIC50 [4]: 5.30 to 5.82; ex vivo aggregation reduced relative to control (platelet aggregation [5]; one hour): 20-58%; ex vivo aggregation reduced relative to control (platelet aggregation [5]; three and five hours, listed as 4R): 75-100% and 72-100%; ex vivo platelet response to all modes of stimulation (platelet aggregation [5]; 10 mg/kg, all time points): unresponsive
R[Pen]GHRGDTRCR (cysteine pairing not given here) |  | 5.06 | 
GPenFRGDSFCA |  | < 3.70 | 
G[Pen]GRGDSFCA (cysteine pairing not given here) |  | 3.94 | 
LRGDSPDG |  | 3.82 | 
VRGDSPDG |  | 4.04 | 
(t-butylAmino-Pmp) GHRGDLRCA |  | 3.89 | 
PmpGRGDTPCA |  | 4.07 | 
GPenLRGDTPCA |  | 4.07 | 
GPenLRGDSPCA | 3.51 | 3.38 | 
GPenLRGDSRCA | 4.31 | 4.39 | 
GPenGRGDTPCA | 4.55 | 4.65 | 
RPenGHRGDWRCR | 5.92 | 5.89 | thrombus formation in animals with circulating platelet levels one-third of normal (coronary thrombosis; 5 mg/kg): able to prevent thrombus formation; time to full occlusion (coronary thrombosis; 5 mg/kg bolus + 5 mg/kg/hr infusion): significantly prolonged the time to occlusion; time to full occlusion (coronary thrombosis; [9]): completely prevented occlusion; pIC50 [4]: 5.30 to 5.82; ex vivo inhibition of platelet activation by collagen (platelet aggregation [5]; 5 mg/kg): near-maximal inhibition; ex vivo platelet response to ADP and AA (platelet aggregation [5]; 5 mg/kg, all three time points): completely unresponsive; ex vivo anti-aggregation effect when platelet count was low (platelet aggregation [5]; 5 mg/kg, platelet count ca. one-third of normal (104,000/ml vs. 361,000/ml)): more pronounced; ex vivo platelet responsiveness (platelet aggregation [5]; 10 mg/kg, five-hour point): slightly improved; ex vivo platelet aggregation by all three stimuli (platelet aggregation [5]; 10 mg/kg, one- and three-hour time points): prevented platelet aggregation
GPenGRGDRPCA |  | 4.65 | 
RPenGRGDTPCR | 5.70 | 5.20 | 
RPenGRGDTPCA | 5.51 | 5.15 | 

— US5648330A, “Method and composition for treating vascular graft occlusion” (La Jolla Cancer Research Foundation, priority 1995, dated 1997)
